Active and inactive are the calls of the source. The calls are words filed in the database; no cut-off is given here.
Key:
Plasmodium falciparum [1] = assay: Gametocytocidal activity against transgenic GFP-fused Plasmodium falciparum NF54 […] stage gametocytes after 72 hrs by Mitotracker Red CMH2XRos staining based confocal microscopic method; format: functional; conditions: NF54, 72 h
[2] = Drug degradation in Tween 20/ethanol/phosphate buffer at 1 mg/ml at pH 7.5 after 24 hrs by HPLC analysis
Plasmodium berghei [3] = assay: Antiplasmodial activity against Plasmodium berghei infected in NMRI mouse assessed as reduction in parasitemia at 50 mg/kg, po administered at 4, 24, 48, 72 hrs post infection measured on day 4 post infection by Peter's test relative to control; format: functional; design: scale not given: the % may be the effect or the level left
Plasmodium berghei [4] = assay: […] activity against GFP-fused Plasmodium berghei liver stage parasites infected in human HepG2-A16-CD81-EGFP cells after 48 hrs by luciferase reporter gene assay; format: functional
Plasmodium berghei [5] = assay: Antiplasmodial activity against Plasmodium berghei infected in NMRI mouse assessed as parasite free mouse at 3 mg/kg, po administered at 4, 24, 48, 72 hrs post infection measured on day 4 by Peter's test; format: functional, organism-based
Plasmodium falciparum [6] = assay: Antiplasmodial activity against chloroquine-sensitive asexual blood stages of Plasmodium falciparum 3D7 after 72 hrs by HRP2-based ELISA; format: functional; conditions: 3D7, 72 h
Plasmodium berghei [7] = assay: Antiplasmodial activity against Plasmodium berghei infected in NMRI mouse assessed as reduction in parasitemia at 30 mg/kg, po administered at 4, 24, 48, 72 hrs post infection measured on day 4 by Peter's test relative to control; format: functional; design: scale not given: the % may be the effect or the level left
Plasmodium berghei [8] = assay: Antiplasmodial activity against Plasmodium berghei infected in NMRI mouse assessed as mean survival time at 10 mg/kg, po administered at 4, 24, 48, 72 hrs post infection measured on day 4 by Peter's test (reference value: 6 to 7 day); format: functional
Plasmodium berghei [9] = assay: Antiplasmodial activity against Plasmodium berghei infected in NMRI mouse assessed as reduction in parasitemia at 3 mg/kg, po administered at 4, 24, 48, 72 hrs post infection measured on day 4 by Peter's test relative to control; format: functional; design: scale not given: the % may be the effect or the level left
[10] = Solubility of compound in phosphate buffer at pH 2.5 after 1 hr by HPLC analysis; format: physicochemical; conditions: pH 2.5, 1 h
[11] = Solubility of compound in phosphate buffer at pH 7.5 after 1 hr by HPLC analysis; format: physicochemical; conditions: pH 7.5, 1 h
Plasmodium berghei [12] = assay: Antiplasmodial activity against Plasmodium berghei infected in NMRI mouse assessed as mean survival time at 50 mg/kg, po administered at 4, 24, 48, 72 hrs post infection by Peter's test (reference value: 6 to 7 day); format: functional
Mus musculus = assay: Toxicity in NMRI mouse infected with Plasmodium berghei assessed as overt toxicity at 50 mg/kg, ip administered at 4, 24, 48, 72 hrs post infection; format: organism-based; conditions: in vivo
Plasmodium falciparum [13] = assay: Effect on male gamete formation in transgenic GFP-fused Plasmodium falciparum NF54 mature stage-5 gametocytes at 1 uM after 72 hrs under reduced oxygen tension by Mitotracker Red CMH2XRos staining based confocal microscopic method; format: functional
Plasmodium berghei [14] = assay: Antiplasmodial activity against Plasmodium berghei infected in NMRI mouse assessed as parasite-free mouse at 30 mg/kg, po administered at 4, 24, 48, 72 hrs post infection measured on day 30 by Peter's test; format: functional, organism-based
Plasmodium berghei [15] = assay: Antiplasmodial activity against Plasmodium berghei infected in NMRI mouse assessed as mean survival time at 30 mg/kg, po administered at 4, 24, 48, 72 hrs post infection by Peter's test (reference value: 6 to 7 day); format: functional
Plasmodium falciparum [16] = assay: Gametocytocidal activity against transgenic GFP-fused Plasmodium falciparum NF54 early stage gametocytes after 72 hrs by Mitotracker Red CMH2XRos staining based confocal microscopic method; format: functional; conditions: NF54, 72 h
Plasmodium berghei [17] = assay: Antiplasmodial activity against Plasmodium berghei infected in NMRI mouse assessed as reduction in parasitemia at 10 mg/kg, po administered at 4, 24, 48, 72 hrs post infection measured on day 4 by Peter's test relative to control; format: functional; design: scale not given: the % may be the effect or the level left
Plasmodium falciparum [18] = assay: Effect on female gamete formation in transgenic GFP-fused Plasmodium falciparum NF54 mature stage-5 gametocytes at 1 uM after 72 hrs under reduced oxygen tension by Mitotracker Red CMH2XRos staining based confocal microscopic method; format: functional
HepG2 = assay: Cytotoxicity against human HepG2 cells by CellTiterGlo assay; format: cell-based
[19] = Chemical stability of compound in tween 20/ethanol/phosphate buffer at 1 mg/ml at pH 7.5 assessed as compound remaining after 6 hrs by HPLC analysis; format: physicochemical; conditions: read-out: Stability
Plasmodium falciparum [20] = assay: Antiplasmodial activity against multidrug-resistant asexual blood stages of Plasmodium falciparum Dd2 after 72 hrs by HRP2-based ELISA; format: functional; conditions: Dd2, 72 h
Plasmodium berghei [21] = assay: Antiplasmodial activity against Plasmodium berghei infected in NMRI mouse assessed as mean survival time at 3 mg/kg, po administered at 4, 24, 48, 72 hrs post infection measured on day 4 by Peter's test (reference value: 6 to 7 day); format: functional

Molecule `N/C(CC(O)c1cc2c(F)cc(F)cc2c2cc(C(F)(F)F)ccc12)=N\N=C\c1ccc(F)cc1` (stereo not drawn) has an IC50 (Plasmodium falciparum [1]) of 66 nM, a Drug degradation [2] of 31% and an Activity (Plasmodium berghei [3]) of 99.9%. For the same molecule, the IC50 (Plasmodium berghei [4]) was 6900 nM, the Activity (Plasmodium berghei [5]) was “inactive” and the IC50 (Plasmodium falciparum [6]) was 2.3 nM. For the same molecule, the Activity (Plasmodium berghei [7]) was 99.4%, the MST (Plasmodium berghei [8]) was 24.7 days and the Activity (Plasmodium berghei [9]) was 78%. The solubility [10] was “Insoluble”, the solubility [11] was “Insoluble” and the MST (Plasmodium berghei [12]) was 22 days. The Activity (Mus musculus) was “Non-Toxic”, the Activity (Plasmodium falciparum [13]) was “inactive” and the Activity (Plasmodium berghei [14]) was “inactive”. The MST (Plasmodium berghei [15]) was 25.7 days, the IC50 (Plasmodium falciparum [16]) was 200 nM and the Activity (Plasmodium berghei [17]) was 99.5%. The Activity (Plasmodium falciparum [18]) was “inactive”, the IC50 (HepG2) was 27700 nM and the remaining at 6 h, 1 mg/ml [19] was over 95%. It also gave an IC50 (Plasmodium falciparum [20]) of 2.9 nM and an MST (Plasmodium berghei [21]) of 7 days.

From ChEMBL document CHEMBL4011644, “3-Hydroxy-N'-arylidenepropanehydrazonamides with Halo-Substituted Phenanthrene Scaffolds Cure P. berghei Infected Mice When Administered Perorally” (J Med Chem, 2017)
